Results from PMC11726555, “Photoswitchable Diazocine Derivative for Adenosine A3 Receptor Activation in Psoriasis” (Journal of the American Chemical Society, 2024).
pEC50: −log10 of the molar value.

Key:
Format in all cases: cell-based
[1] = target: T1, adenosine A3 receptor (A3R) (Homo sapiens, UniProt P0DMS8); assay: inhibition of forskolin-stimulated cAMP accumulation in HEK-293 cells expressing A3R (partial agonist, Emax […]); conditions: read-out: IC50 (the source's name)
T1 construct: gene ADORA3
T1 sequence (P0DMS8 1-318): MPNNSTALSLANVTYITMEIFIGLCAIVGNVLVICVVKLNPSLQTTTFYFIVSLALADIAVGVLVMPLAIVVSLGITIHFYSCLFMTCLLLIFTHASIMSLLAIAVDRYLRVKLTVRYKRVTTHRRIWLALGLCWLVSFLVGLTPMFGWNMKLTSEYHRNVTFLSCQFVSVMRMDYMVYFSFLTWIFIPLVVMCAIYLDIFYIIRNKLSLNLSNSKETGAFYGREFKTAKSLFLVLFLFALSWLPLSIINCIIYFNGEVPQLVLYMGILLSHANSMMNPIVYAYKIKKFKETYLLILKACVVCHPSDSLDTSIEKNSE

[2] = target: T2, A1R (adenosine A1 receptor) (Homo sapiens, UniProt P30542); assay: cAMP accumulation assay in HEK-293 cells expressing A1R (reference agonist)
T2 construct: gene ADORA1
T2 sequence (P30542 1-326): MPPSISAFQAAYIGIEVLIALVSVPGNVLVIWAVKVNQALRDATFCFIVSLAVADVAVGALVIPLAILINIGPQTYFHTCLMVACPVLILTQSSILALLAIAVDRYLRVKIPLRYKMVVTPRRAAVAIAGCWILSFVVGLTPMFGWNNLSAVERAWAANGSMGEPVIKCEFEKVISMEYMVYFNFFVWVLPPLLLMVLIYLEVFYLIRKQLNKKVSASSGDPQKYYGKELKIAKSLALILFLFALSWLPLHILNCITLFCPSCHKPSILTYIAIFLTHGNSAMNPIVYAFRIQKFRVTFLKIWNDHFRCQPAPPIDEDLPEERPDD

[3] = target: T1, adenosine A3 receptor (A3R); assay: cAMP accumulation assay in HEK-293 cells expressing A3R (reference agonist)

SMILES: CNC(=O)[C@H]1O[C@@H](n2cnc3c(NCc4ccc5c(c4)/N=N/c4ccccc4CC5)ncnc32)[C@H](O)[C@@H]1O [compound 4, E-MRS7787]
- pEC50 [1]: 7.51

SMILES: OC[C@H]1O[C@@H](n2cnc3c(NC4CCCC4)ncnc32)[C@H](O)[C@@H]1O [CPA]
- cAMP accumulation assay in HEK-293 cells expressing A1R (reference agonist) [2]: CPA (N^6-cyclopentyladenosine, selective A1R agonist) induced the maximum A3R- and A1R-mediated inhibition of cAMP accumulation

SMILES: CNC(=O)[C@@]12C[C@@H]1[C@@H](n1cnc3c(NCc4cccc(Cl)c4)nc(C#Cc4ccc(F)c(F)c4)nc31)[C@H](O)[C@@H]2O [MRS5698, (1S,2R,3S,4R,5S)-4-(6-((3-chlorobenzyl)amino)-2-((3,4-difluorophenyl)-ethynyl)-9H-purin-9-yl)-2,3-dihydroxy-N-methylbicyclo[3.1.0]hexane-1-carboxamide]
- cAMP accumulation assay in HEK-293 cells expressing A3R (reference agonist) [3]: treatment with MRS5698 and CPA (N^6-cyclopentyladenosine, selective A1R agonist) induced the maximum A3R- and A1R-mediated inhibition of cAMP accumulation
